We go through 3 compounds from PMC5841658, “Anti-cancer characteristics and ototoxicity of platinum(II) amine complexes with only one leaving ligand” (PLoS ONE, 2018).

Several values for one entry are separate records, joined by “and”; a condition that tells them apart may be missing. Equal values may be shown once.

The test system of data set [1] is A549 lung cancer cell line. Nature of the data set: MTT cellular viability assay, A549. It is filed as cell-based. The settings on record: 72 hours, ± standard deviation. On the procedure: (§1) Cell lines were obtained from American Type Culture Collection (ATCC, Manassas, VA). […] Caco-2 (ATCC: HTB-37) colorectal cancer was grown in EMEM with 20% FBS and 1% penicillin/streptomycin. All cell lines were incubated at 37°C in 5% CO2 with passaging every 4–7 days. Cell culture media and supplements were obtained from ATCC, Atlanta Biologicals (Flowery Branch, GA), Mediatech (Tewksbury, MA), Fisher Scientific (Waltham, MA), Gibco (Gaithersburg, MD) and Sigma-Aldrich.
(§2) The MTT (3-(4,5-dimethylthiazol-2-yl)-2,5-diphenyltetrazolium bromide) cellular viability assay was performed in all three cancer cell lines and the non-cancer cell line. Following a protocol adapted from, cells were seeded at 5,000 cells per well in 96-well plates and incubated at 37°C in 5% CO2 in F-12K Medium or EMEM with FBS supplementation and 1% penicillin/streptomycin for 24 hours. Then, wells were treated in replicates of six according to a concentration series (500, 50, 5, 0.5, 0.05 μM) of specific platinum complexes for 72 hours. A negative control (media only), positive control (Triton X-100) and series of blanks were simultaneously performed. The MTT assay was run for 2 hours, then well contents were rapidly evacuated out and all wells were treated with MTT solubilization solution [10% Triton X-100 in acidic (0.1N HCl) isopropanol] for 15 minutes before the plates were read using a BioTek Synergy HT microplate plate reader (570 nm and 690 nm absorbance wavelengths). Reagents, cell culture media and supplements were obtained from ATCC, Atlanta Biologicals, Mediatech, Fisher Scientific, Gibco and Sigma-Aldrich.
(§3) GraphPad Prism v6 (La Jolla, CA) was used for all statistical analysis. Nuclear fraction platinum uptake as a total percent of combined nuclear and cytosolic uptake was analyzed using a one-way ANOVA (Brown-Forsyth test; p ≤ 0.05). IC50 values were calculated in Prism using the sigmoidal, 4PL, x is log(concentration) analysis feature or were calculated from Prism derived values using the equation y = mx + b. MTT assay standard deviation values were calculated using ED50plus v1.0 online software. AEP threshold data were analyzed by two-way ANOVA (Dunnett’s multiple comparisons test; p ≤ 0.05) and hair cell quantification data by two-way ANOVA (Tukey’s multiple comparisons test; p ≤ 0.05). AEP temporary threshold shifts (TTS) were calculated by subtracting the mean vehicle threshold for each frequency from each treatment threshold. TTS data were averaged across frequencies for each treatment and were analyzed by one-way ANOVA (Tukey’s multiple comparisons test; p ≤ 0.05).
Background: Tetrazolium assays rely on reduction of a dye to a coloured formazan, in cell work by metabolically active cells.

Data set [2] relates to U-138 MG (HTB-16) glioblastoma cancer cell line. Nature of the data set: MTT cellular viability assay, HTB16. The settings on record: HTB16 (glioma), 72 hours, ± standard deviation. The format is cell-based. On the procedure:
as §1, §2, §3

Data set [3] concerns Caco-2 colorectal cancer cell line. The data set can be described thus: MTT cellular viability assay, Caco2. The format is cell-based. Conditions: 72 hours, ± standard deviation. How it is done: as §1, §2, §3
The test system of data set [4] is IMR-90 lung fibroblast control cell line. The data set can be described thus: MTT cellular viability assay, IMR90. The settings on record: IMR90 (fibroblast, non-cancer), 72 hours, ± standard deviation. It is filed as cell-based. On the procedure:
as §1, §2, §3

For data set [5], the system named is zebrafish saccule hair cells. Nature of the data set: Hair cell quantification, saccule. It is filed as in vivo, Danio rerio. Conditions: 25 mg/kg i.p., 48 hours; for effect on hair cell density in four regions of the saccule compared to vehicle: 5, 25, 50, 75% regions. On the procedure:
(§4) Zebrafish (Danio rerio) were purchased from a commercial supplier (Segrest Farms, Gibsonton, FL) and maintained in the animal facility of Western Kentucky University according to a protocol approved by the Institutional Animal Care and Use Committee. All zebrafish used in this study were a mix of male and female adult animals at least 6 months of age and were maintained according to standard methods.
(§5) After injection, fish were returned to holding tanks for either 24 or 48 hours and then subjected to hearing tests followed by hair cell quantification analysis.
Hair cell counts were performed from specific regions of the zebrafish saccule and utricle using established procedures. […] Prior to dissection, heads were rinsed three times for 10 minutes each at room temperature in phosphate buffer (pH 7.4, LabChem, Pittsburgh, PA) and the inner ear epithelia (saccule and utricle) were then carefully dissected out and trimmed. […] Tissue samples were then placed on glass slides and nuclei were labelled with Prolong Gold antifade reagent (4’,6-diamidino-2-phenylindole [DAPI], Life Technologies, Carlsbad, CA) and a cover-slip was placed over the samples for microscopy.
Saccule and utricle samples were viewed through the FITC filter of a Zeiss Axioplan2 epifluorescence microscope (Carl Zeiss, Jena, Germany) at 20X magnification and were then photographed using an AxioCam MRm camera. Cell counts were made from four regions of the saccule (5%, 25%, 50%, 75%) along the rostral-caudal length of the organ by placing a 50 μm x 50 μm box at each location and using the microscope cell counter feature. In the utricular samples, cell counts were made from three equidistant 50 μm x 50 μm boxes in both the extrastriolar and striolar regions.
as §3

For data set [6], the system named is zebrafish hearing thresholds. The data set can be described thus: Auditory evoked potential (AEP) testing in zebrafish inner ear model. It is filed as in vivo, Danio rerio. Conditions: 25 mg/kg i.p.; for AEP hearing threshold, significance of pairwise comparison against vehicle / AEP hearing threshold, significance of pairwise comparison against cisplatin: 48 h. On the procedure:
as §4, §5
Auditory evoked potential (AEP) testing was performed on individual fish according to standard protocols. […] After harness placement was complete, three 27 gauge stainless steel electrodes (Rochester Electro-Medical, Inc., Lutz, FL) were inserted approximately 2 mm subdermally to record AEPs. A reference electrode was inserted into the medial dorsal surface of the head, a recording electrode directly over the brainstem and a ground electrode in the tail musculature. Sound stimuli (tone pips) were presented to each fish at 8 frequencies (100, 250, 400, 600, 800, 1000, 1500 and 3000 Hz) and AEP waveforms were collected using a TDT System III physiology apparatus (Tucker-Davis Technologies Inc., Alachua, FL) running SigGen and BioSig software. Auditory stimuli were passed through a P1000 power amplifier (Hafler, Port Coquitlam, BC) and presented with a University Sound UW-30 underwater speaker (Electro-Voice, Fairport, NY). Sound pressure levels were confirmed using a Type 10CT hydrophone (G.R.A.S., Holte, Denmark) placed adjacent to the mesh harness. Auditory thresholds were determined in 5 dB increments by visual inspection of AEP waveforms.
as §3

Another data set has as its system 5'-GMP. Nature of the data set: Kinetic 5'-GMP assay (1H NMR, rate of reaction of platinum complex with 5'-GMP). Conditions: D2O, pH 7, 25°C. It is filed as biochemical. On the procedure: The reaction of each platinum compound with 5'-GMP (Acros) was monitored using ^1H NMR spectroscopy to observe the disappearance of the H8 signal of the unreacted 5'-GMP at ≈8 ppm and the appearance of a product signal ≈0.5–1.0 ppm downfield of the unreacted 5'-GMP. The reaction was conducted with excess platinum compound present in each case. A 10 mM solution of 5'-GMP and a 10–20 mM solution of the platinum(II) compound were prepared separately in D2O. The pH (uncorrected for the effects of deuterium) of each solution was adjusted to 7, and the samples were equilibrated to 25°C in a water bath. Aliquots of the two solutions were combined and placed in an NMR tube; typically, the final concentrations of platinum was 5–18 mM and the concentration of 5'-GMP was 1 mM (except for the [Pt(dien)Cl]^+ reaction, where it was 0.5 mM). Samples were maintained at 25°C throughout the NMR experiment. The H8 resonances were integrated and the data was fitted to an equation that was first order in each reactant using DynaFit to determine rate constants. At least two runs were conducted for each platinum compound using fresh samples.

In the case of `CC[N+]1(CC)CC[NH+]2CC[NH][Pt-2]21[Cl]` (stereo not drawn) [[Pt(Et2dien)Cl]^+, Pt(N,N-diethyldiethylenetriamine)Cl], the IC50 was 67.3 ± 0.36 µM in data set [1], 48 ± 11.8 µM in data set [2], 72.5 ± 3.37 µM in data set [3] and 7.13 ± 0.98 µM in data set [4].

Regarding `N.N.[Cl][Pt][Cl]` [Cisplatin, cisplatin], the figures for the concentration for half-maximal inhibition (IC50) in data set [1], in data set [2] and in data set [4] were 9.79 ± 0.63 µM, 3.11 ± 0.06 µM and 0.53 ± 0.94 µM, respectively. The “saccule hair cell density, % of control” value was 69.5 % of control in data set [5] (5% location along rostral-caudal axis), 41.4 % of control in data set [5] (25% location along rostral-caudal axis) and 47.7 % of control in data set [5] (50% location along rostral-caudal axis). Further, the “effect on hair cell density in four regions of the saccule compared to vehicle” value in data set [5] is “hair cell density reduction in the 5, 25 and 50% regions”. For the same compound, the “AEP hearing threshold, significance of pairwise comparison against vehicle” value is recorded as “ns (ns, p > 0.05)” in data set [6] (100 Hz); “ns (ns, p > 0.05)” in data set [6] (250 Hz); “**** (**** p ≤ 0.0001)” in data set [6] (400 Hz); “*** (*** p ≤ 0.001)” in data set [6] (600 Hz); “*** (*** p ≤ 0.001)” in data set [6] (800 Hz); “**** (**** p ≤ 0.0001)” in data set [6] (1000 Hz). Also, the “AEP hearing threshold, significance of pairwise comparison against vehicle” value in data set [6] (1500 Hz) is “**** (**** p ≤ 0.0001)”; in data set [6] (3000 Hz) it was “ns (ns, p > 0.05)”.

Take `CC[N+]1(CC)CC[NH+]2CC[NH2+][Pt-2]21[Cl]` (stereo not drawn) [[Pt(Et2dien)Cl]^+, Pt(N,N-diethyldiethylenetriamine)Cl]: in the data set with 5'-GMP, the “Relative rate (rate constant divided by the rate constant for [Pt(dien)Cl]^+)” value was found to be 0.00012. Further, the “Rate constant for the reaction of 5'-GMP with the platinum(II) complex” value in the data set on 5'-GMP (excess platinum, fitted first order in each reactant) is 4.64 ± 0.08 x 10^−5 M^-1s^-1 and 4.64 (+/- 0.08) x 10^−5 M^-1s^-1. For the same compound, the “effect on hair cell density in four regions of the saccule compared to vehicle” value in data set [5] is “no significant reduction in hair cell bundles”. The “mean (± S.E.) temporary threshold shift (TTS), averaged across frequencies” value in data set [6] (48 hours, vehicle threshold subtracted) is reported as 11.1 ± 2.5 dB. For the same compound, the “AEP hearing threshold, significance of pairwise comparison against cisplatin” value in data set [6] (100 Hz) is “ns (ns, p > 0.05)”; in data set [6] (250 Hz), “ns (ns, p > 0.05)”; in data set [6] (400 Hz), “ns (ns, p > 0.05)”; in data set [6] (600 Hz), “ns (ns, p > 0.05)”; in data set [6] (800 Hz), “* (* p ≤ 0.05)”; in data set [6] (1000 Hz), “ns (ns, p > 0.05)”. Moreover, the “AEP hearing threshold, significance of pairwise comparison against cisplatin” value in data set [6] (1500 Hz) is listed as “ns (ns, p > 0.05)”; in data set [6] (3000 Hz), “ns (ns, p > 0.05)”. In addition, the “AEP hearing threshold, significance of pairwise comparison against vehicle” value is given as “*** (*** p ≤ 0.001)” in data set [6] (100 Hz); “ns (ns, p > 0.05)” in data set [6] (250 Hz); “**** (**** p ≤ 0.0001)” in data set [6] (400 Hz); “**** (**** p ≤ 0.0001)” in data set [6] (600 Hz); “**** (**** p ≤ 0.0001)” in data set [6] (800 Hz); “**** (**** p ≤ 0.0001)” in data set [6] (1000 Hz). The “AEP hearing threshold, significance of pairwise comparison against vehicle” value was “ns (ns, p > 0.05)” in data set [6] (1500 Hz) and “** (** p ≤ 0.01)” in data set [6] (3000 Hz).

As a reminder, the IC50 is the midpoint of a concentration-inhibition curve.
